Publication PMC10122656, “Siglec-6 mediates the uptake of extracellular vesicles through a noncanonical glycolipid binding pocket” (Nature Communications, 2023)
“And” between values parts separate entries of the source, which are not always exact repeats. Equal values may be shown once.

Columns and labels:
[1] = molecular target: T1, CHO cells expressing Siglec-6 mutants (C46A, C172A, R to A mutants, F93A, L95A, G175M) (Homo sapiens, UniProt O43699, C172A); assay: Cell assay (liposome/EV binding, flow cytometry); type: cell-based; conditions: sheet Figure S26a, 3% GM3-DAG liposomes, C172A;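 note: AF647 fluorescence intensity from 0.1 mol% AF647–PEG45–DSPE in liposomes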
T1 construct: These new CHO cell lines are the full-length versions of the Siglecs; expressed in transfected cells
Protocol: (§1) Mutations were introduced into each Siglec via gene overlap extension PCR mutagenesis (primers were ordered through IDT). Mutagenesis primers can be found in Supplementary Tables 2 and 3 for the critical arginine mutants of the entire Siglec family and the additional Siglec-6 mutants respectively.
(§2) 200,000 cells/well were plated into a 96-well U-bottom microplate and centrifuged at 300 × g for 5 min. The cells were then resuspended in 50 µL of 50 µM liposome/50 µg/mL (protein concentration) of EV solution in DMEM F12 5% FBS and incubated at 37 °C for 30 min. Excess liposomes were then removed via centrifuged at 300 × g for 5 min followed by washing the cells with FACS solution. The cells were then resuspended in (1:250 V/V) anti-Siglec-flow buffer (1% V/V FBS, 500 µM, EDTA Hank’s Balanced Salt Solution pH 7.4), solution and left to rest on ice for 30 min. The cells were then centrifuged again at 300 × g for 5 min and the cells were resuspended in FACS buffer solution and were then ready for analysis by flow cytometry. Information regarding antibody clone, catalog number supplier, label isotype, and dilution can be found in Supplementary Table 6. The Siglec-positive cells were gated on for liposome-binding analysis (Supplementary Fig. 1b).
(§3) Flow cytometry measurements were collected on a 5-laser Fortessa X-20 (BD Bioscience). All the resulting data were analyzed using FlowJo (10.5.3) software (BD Biosciences).

[2] = molecular target: T2, CHO cells expressing Siglec-6 mutants (C46A, C172A, R to A mutants, F93A, L95A, G175M) (Homo sapiens, UniProt O43699, R90A); assay: Cell assay (liposome/EV binding, flow cytometry); type: cell-based; conditions: sheet Figure S26a, 3% GM3-DAG liposomes, R90A;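 note: AF647 fluorescence intensity from 0.1 mol% AF647–PEG45–DSPE in liposomes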
T2 construct: These new CHO cell lines are the full-length versions of the Siglecs; expressed in transfected cells
Protocol: as §1, §2, §3

[3] = tested on: naïve B-cells; assay: Liposome binding to peripheral blood naïve B-cells by flow cytometry; type: cell-based, human; conditions: sheet Figure S29, 5% GM3-DAG liposomes; cells not given
Protocol: as §2, §3

[4] = molecular target: T3, R92K Siglec-6 CHO cells (Homo sapiens, UniProt O43699, R92K); assay: Cell assay (liposome/EV binding, flow cytometry); type: cell-based
T3 construct: These new CHO cell lines are the full-length versions of the Siglecs; expressed in transfected cells
Protocol: as §1
as §2, with “The Siglec-positive cells were gated on for liposome-binding analysis (Supplementary Fig. 1b).” left out
as §3

[5] = molecular target: T4, Daudi cells transduced with WT Siglec-6 (Homo sapiens, UniProt O43699); assay: Imaging flow cytometry internalization; type: cell-based; conditions: 60 min at 4 or 37 °C
T4 construct: expressed in transfected cells; host or cells: Daudi cells (human B-cell line), lentiviral transduction
Protocol: Approximately 2 × 10^5 Daudi cells/well were plated into a 96-well U-bottom microplate and centrifuged at 300 × g for 5 min. The cell pellets were placed on ice, and 50 µL of 100 µM of liposome or 1:20 µL of EVs in RPMI growth medium (Gibco) containing 10% (V/V) fetal bovine serum (FBS; Gibco), 100 U/mL penicillin (Gibco), and 100 µg/mL streptomycin (Gibco) was added to their corresponding wells. Plates were incubated for 1 h at either 4 or 37 °C. After incubation, plates were centrifuged at 300 × g, 5 min, 4 °C then incubated with fluorescently conjugated anti-Siglec-6 antibody (Alexa Fluor 488; 1:250 dilution; R&D Systems) for 25 min at 4 °C. The plates were centrifuged once more at 300 × g, 4 °C, 5 min and the resulting cell pellet was resuspended in 40 µL of flow buffer (1% FBS, 500 µM EDTA Hank’s Balanced Salt Solution pH 7.4). 5000 events were collected for each sample using the ImageStream®X Mk II Flow cytometer (excitation lasers 488 nm and 642 nm, ×60 magnification). Data analysis was performed using IDEAS software, version 6.2.

T1 sequence (O43699 27-453 C172A): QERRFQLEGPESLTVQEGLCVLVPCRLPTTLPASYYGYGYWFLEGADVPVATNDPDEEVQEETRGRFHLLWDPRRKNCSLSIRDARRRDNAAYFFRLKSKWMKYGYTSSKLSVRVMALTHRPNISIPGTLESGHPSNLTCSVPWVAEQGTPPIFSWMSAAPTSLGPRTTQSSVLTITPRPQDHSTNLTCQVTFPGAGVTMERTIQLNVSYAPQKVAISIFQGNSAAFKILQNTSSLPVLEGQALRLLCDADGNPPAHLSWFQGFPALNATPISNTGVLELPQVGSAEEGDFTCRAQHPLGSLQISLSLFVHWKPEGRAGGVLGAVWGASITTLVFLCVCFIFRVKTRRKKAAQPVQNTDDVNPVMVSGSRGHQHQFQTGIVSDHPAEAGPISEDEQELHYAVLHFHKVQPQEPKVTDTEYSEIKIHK
T2 sequence (O43699 27-453 R90A): as the sequence (O43699 27-453 C172A) above, with R64A, A146C counted along it
T3 sequence (O43699 27-453 R92K): as the sequence (O43699 27-453 C172A) above, with R66K, A146C counted along it
T4 sequence (O43699 27-453): as the sequence (O43699 27-453 C172A) above, with A146C counted along it

liposome binding, fluorescence signal (replicates) [1] | liposome binding, fluorescence signal (replicates) [2] | 5 liposome binding gated on identical Siglec-6 expression levels, MFI (Fig. S26e) ([4]; R92K Siglec-6, replicates) | 5 nGLL binding to R92K Siglec-6 CHO cells ([4]; cell assay, expression 42% of WT) | SMILES | liposome binding, fluorescence signal (replicates) [3] | internalization of 5 nGLLs by imaging flow cytometry [5]
837 and 738 and 839 and 676 | 6321 and 6067 and 6474 and 6517 | – | – | CCCCCCCCCCCCCCCCOCC(COCCCCCCCCCCCCCCCC)OCc1cn(CCO[C@@H]2O[C@H](CO)[C@@H](O[C@@H]3O[C@H](CO)[C@H](O)[C@H](O[C@]4(C(=O)O)C[C@H](O)[C@@H](NC(C)=O)[C@H]([C@H](O)[C@H](O)CO)O4)[C@H]3O)[C@H](O)[C@H]2O)nn1 [GM3-DAG] | 154 and 151 and 136 and 149 | –
– | – | 29.25 and 36.25 and 24.25 | minimal binding | CCCCCCCCCCCCCCCCOCC(COCCCCCCCCCCCCCCCC)OCc1cn(CCO[C@@H]2O[C@H](CO)[C@@H](O[C@@H]3O[C@H](CO)[C@H](O)[C@H](O[C@]4(C(=O)O)C[C@H](O)[C@@H](NC(C)=O)[C@H]([C@H](O)[C@H](O)CO)O4)[C@H]3O)[C@H](O)[C@H]2O)nn1 [nGL 5] | – | internalize 5 nGLLs at 37 °C but not 4 °C
